Source: US10441537B2, “Unit doses, aerosols, kits, and methods for treating heart conditions by pulmonary administration” (InCarda Therapeutics, Inc., priority 2017, dated 2019)
Where a name gives a salt, the structure may show the parent alone.

What was measured:
[1] = test system: induced atrial fibrillation; assay: Induced atrial fibrillation model in anesthetized dogs, intratracheal (IT) administration; type: in vivo; conditions: for conversion of induced atrial fibrillation to normal sinus rhythm: pulmonary dose 0.25 mg/kg body weight (FIG. 13), hydrochloride
Description: Atrial Fibrillation Model: Anesthesia/Surgical Preparation: A venous catheter was placed in a peripheral vessel (i.e., cephalic) for administration of anesthetic. […] Following induction, animals were endotracheally intubated and mechanically ventilated (˜12 breaths/minute with a tidal volume of 200-300 mL). Subsequently, a cut-down on a jugular vein permitted introduction of a pacing lead into the right atrium. Transthoracic electrodes forming ECG lead II were placed. For test/vehicle article delivery, a 4F catheter was introduced through the trachea and wedged into a small airway, and a venous catheter was placed in a peripheral vessel (i.e., cephalic). […] Approximately 5 min after administration of this parasympathomimetic was started; the following experiments were performed: […] Observations were made for up to 10 minutes. […] Vehicle was only water.

[2] = test system: induced supraventricular tachycardia; assay: Supraventricular tachycardia (SVT) model in anesthetized dogs, IT vs IV; type: in vivo; conditions: for cardiovascular effect when given by intratracheal instillation (summary): dog, in vivo
Description: Supraventricular Tachycardia Model:
Anesthesia/Surgical Preparation:
A venous catheter was placed in a peripheral vessel (i.e., cephalic) for administration of anesthetic(s). For anesthesia induction, all animals were given a combination of diazepam (˜0.5 mg/kg) and ketamine (˜10 mg/kg) intravenously through this venous catheter. Anesthesia was sustained until completion of the study with an intravenous infusion of pentobarbital (5-15 mg/kg/hr). Following induction, animals were endotracheally intubated and mechanically ventilated (˜12 breaths/min with a tidal volume of 200-300 mL).
Subsequently, a cut-down on a jugular vein permitted the introduction of a pacing lead into the right atrium. Similarly, for arterial pressure monitoring, a solid-state micromanometer catheter (Millar Instruments) was advanced into the aortic root via a cut-down over an artery (e.g., femoral, carotid). Transthoracic electrodes forming ECG lead II was placed. For vehicle/test article delivery, a 4F catheter was introduced through the trachea and wedged into a small airway, and a venous catheter was placed in a peripheral vessel (i.e., cephalic).
Following instrumentation/hemodynamic stabilization (for at least 15 minutes), right atrial pacing (5-10 V, 40 Hz, 2 ms pulses) was established in order to induce supraventricular tachycardia (SVT); pacing and SVT was sustained throughout the duration of the experiments. Approximately 5 minutes after onset of SVT and while monitoring ECG/arterial pressure continuously, the animals were administered three escalating doses (one at a time) of a test article; each dose was delivered as a bolus (˜3 mL) directly into a small airway through the intratracheal catheter (IT). Following dosing, the heart-rate (HR) and arterial pressure response were monitored for 15 minutes.
Subsequently (once the response to three IT doses had been recorded), hemodynamic recovery was allowed for approximately 30 minutes, and the electrocardiographic/hemodynamic response to the highest test-article dose was re-evaluated; however, for comparison purposes, this dose was delivered intravenously (IV).
Overall, two groups/test-articles were studied, and up to two animals were assigned to each group (n=2/group): one group received esmolol HCL (0.5-1.0 mg/kg, ESM), while the other received adenosine (0.25-1.0 mg/kg, ADN); only one test article was administered to per animal.

SMILES: COc1ccc([C@@H]2Sc3ccccc3N(CCN(C)C)C(=O)[C@@H]2OC(C)=O)cc1 [diltiazem, diltiazem hydrochloride]
- conversion of Atrial Fibrillation to normal sinus rhythm ([1]; IT bolus): rapidly converted the Atrial Fibrillation to normal sinus rhythm
- cardiovascular effect when given by intratracheal instillation (summary) ([1]; dog, in vivo): clear cardiovascular effect
- mean arterial blood pressure (MAP) ([1]; dog, in vivo, 0.25 mg/kg): notable drop in mean arterial blood pressure
- PQ interval ([1]; pulmonary dose 0.25 mg/kg): prolonged the PQ interval
- heart rate ([1]; pulmonary dose 0.25 mg/kg): slowed down but marginally
- conversion of induced atrial fibrillation to normal sinus rhythm ([1]; 0.25 mg/kg): converted the induced atrial fibrillation to normal sinus rhythm
- conversion of induced atrial fibrillation to normal sinus rhythm ([1]; listed as diltiazem HCl, 0.25 mg/kg): Afib converting after administration
- pulmonary vs IV route ([2]; 0.25 mg/kg): comparable in all aspects
- PR interval ([2]; IV or pulmonary route): prolonged the PR interval
- pH of solution in water (3.5 mg/mL): 6.7
- appearance of solution (distilled water, diltiazem hydrochloride 50 mg/ml, flecainide acetate 30 mg/ml): clear with no visible particulate matter

SMILES: Nc1ncnc2c1ncn2[C@@H]1O[C@H](CO)[C@@H](O)[C@H]1O [adenosine]
- cardiovascular effect when given by intratracheal instillation (summary) [2]: a clear response was not observed
- effect on the heart ([2]; via the lung): did not have any effect on the heart

SMILES: CN(CCOc1ccc(NS(C)(=O)=O)cc1)CCc1ccc(NS(C)(=O)=O)cc1 [dofetilide]
- effect on ventricular rate ([1]; IT bolus): marginally slowed the ventricular rate
- cardiovascular effect when given by intratracheal instillation (summary) ([1]; dog, in vivo): probable effect
- heart rate ([1]; escalating pulmonary doses of 10-40 mcg/kg body weight): minor reduction in heart rate

SMILES: COC(=O)CCc1ccc(OCC(O)CNC(C)C)cc1 (stereo not shown) [esmolol, esmolol HCl]
- period of AV block ([2]; 0.5 mg/kg via the lung (FIG. 17, 18)): AV block induced
- period of AV block ([2]; 0.75 mg/kg via the lung (FIG. 20)): AV block induced
- cardiovascular effect when given by intratracheal instillation (summary) [2]: probable effect
- AV block ([2]; elevating IT doses): 2nd degree AV block at lower doses
- PR intervals in the ECG traces ([2]; elevating IT doses): prolonging the PR intervals
- electrophysiological effects ([2]; higher dose 1.0 mg/kg): did not produce the same electrophysiological effects
